In the supplement of paper PMC10307832:

Assays:
Assay in all cases: relative viability (nuclei count vs DMSO), 5 days (fraction); higher = more cells survive
Tosedostat + Palbociclib = compound: CC(C)C[C@@H](C(=O)N[C@H](C(=O)OC1CCCC1)c1ccccc1)[C@H](O)C(=O)NO [Tosedostat] + CC(=O)c1c(C)c2cnc(Nc3ccc(N4CCNCC4)cn3)nc2n(C2CCCC2)c1=O [Palbociclib] (partner 0.5 µM)
Procedure, shortened: (§1)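 Lung cancer cell lines in 1536-well plates were dosed by pin tool the day after seeding, either with one drug alone or with a fixed anchor-drug dose plus five library-drug doses (not always all listed) in √10 steps. After 5 days, cells were fixed and their nuclei stained in one step (final 0.05% Triton X-100, 1% formaldehyde, 1 ug/ml Hoechst), then counted on 4× images. Relative viability is the nuclei count in treated wells divided by that in vehicle wells. Values are medians of duplicate plates.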

Tosedostat + Pemetrexed = compound: CC(C)C[C@@H](C(=O)N[C@H](C(=O)OC1CCCC1)c1ccccc1)[C@H](O)C(=O)NO [Tosedostat] + Nc1nc2[nH]cc(CCc3ccc(C(=O)N[C@@H](CCC(=O)O)C(=O)O)cc3)c2c(=O)[nH]1 [Pemetrexed] (partner 0.2 µM)
Procedure, shortened: as §1

[1] = compound: CC1=NN=C(O1)C2=NN=C(C=C2)N3CCC(CC3)OC4=C(C=CC(=C4)F)Cl + Cc1nc(NC(=O)N2CCC[C@H]2C(N)=O)sc1-c1ccnc(C(C)(C)C(F)(F)F)c1 [Alpelisib] (partner 2 µM)
Procedure, shortened: as §1

[2] = compound: CC1=NN=C(O1)C2=NN=C(C=C2)N3CCC(CC3)OC4=C(C=CC(=C4)F)Cl + Nc1ncn([C@H]2C[C@H](O)[C@@H](CO)O2)c(=O)n1 [Decitabine] (partner 2 µM)
Procedure, shortened: as §1

| Cell Line | relative viability (Tosedostat + Palbociclib; first compound 0.02 µM) | relative viability (Tosedostat + Palbociclib; first compound 0.06325 µM) | relative viability (Tosedostat + Palbociclib; first compound 0.2 µM) | relative viability (Tosedostat + Palbociclib; first compound 0.6325 µM) | relative viability (Tosedostat + Palbociclib; first compound 2 µM) | relative viability (Tosedostat + Pemetrexed; first compound 0.02 µM) | relative viability (Tosedostat + Pemetrexed; first compound 0.06325 µM) | relative viability (Tosedostat + Pemetrexed; first compound 0.2 µM) | relative viability (Tosedostat + Pemetrexed; first compound 0.6325 µM) | relative viability (Tosedostat + Pemetrexed; first compound 2 µM) | relative viability ([1]; first compound 0.253 µM) | relative viability ([1]; first compound 0.8 µM) | relative viability ([1]; first compound 2.53 µM) | relative viability ([1]; first compound 8 µM) | relative viability ([2]; first compound 0.253 µM) | relative viability ([2]; first compound 0.8 µM) | relative viability ([2]; first compound 2.53 µM) | relative viability ([2]; first compound 8 µM) |
| --- | --- | --- | --- | --- | --- | --- | --- | --- | --- | --- | --- | --- | --- | --- | --- | --- | --- | --- |
| PC-3 [JPC-3] | 0.538 | 0.547 | 0.554 | 0.493 | 0.555 | 1.03 | 1.18 | 0.918 | 0.901 | 0.54 | 0.915 | 0.866 | 0.914 | 0.901 | 0.774 | 0.747 | 0.801 | 0.732 |
| NCI-H1755 | 0.472 | 0.47 | 0.465 | 0.503 | 0.423 | 0.521 | 0.43 | 0.362 | 0.484 | 0.416 | 0.713 | 0.697 | 0.709 | 0.671 | 0.524 | 0.54 | 0.605 | 0.503 |
| NCI-H23 | 0.509 | 0.494 | 0.521 | 0.37 | 0.428 | 0.745 | 0.702 | 0.691 | 0.725 | 0.361 | 0.635 |  | 0.663 | 0.822 | 0.268 | 0.328 | 0.295 | 0.282 |
| NCI-H1915 | 0.41 | 0.512 | 0.554 | 0.523 | 0.495 | 0.526 | 0.538 | 0.645 | 0.726 | 0.781 | 0.506 | 0.391 | 0.437 | 0.31 | 0.255 | 0.223 | 0.242 | 0.217 |
| NCI-H2405 | 0.576 | 0.559 | 0.548 | 0.484 | 0.466 | 1.02 | 1.04 | 1.05 | 0.875 | 0.85 | 0.745 | 0.778 | 0.691 | 0.828 | 0.452 | 0.43 | 0.485 | 0.443 |
| EMC-BAC-2 | 0.516 | 0.522 | 0.536 | 0.484 | 0.489 | 0.453 | 0.463 | 0.582 | 0.626 | 0.655 | 0.69 | 0.649 | 0.695 | 0.581 | 0.903 | 0.837 | 0.957 | 0.794 |
| NCI-H2087 | 0.247 | 0.288 | 0.233 | 0.207 | 0.22 | 0.682 | 0.754 | 0.709 | 0.727 | 0.612 | 0.762 | 0.674 | 0.615 | 0.615 | 0.238 | 0.265 | 0.268 | 0.271 |
| PC-14 | 0.583 | 0.469 | 0.502 | 0.447 | 0.444 | 0.125 | 0.135 | 0.157 | 0.124 | 0.09 | 0.849 | 0.827 | 0.885 | 0.857 | 0.19 | 0.226 | 0.177 | 0.23 |
| NCI-H2009 | 0.252 | 0.212 | 0.254 | 0.274 | 0.181 | 1.07 | 0.998 | 1.07 | 0.977 | 1.1 | 0.712 | 0.714 | 0.646 | 0.626 | 0.322 | 0.304 | 0.311 | 0.268 |
| NCI-H1975 | 0.574 | 0.53 | 0.561 | 0.432 | 0.415 | 0.313 | 0.286 | 0.325 | 0.271 | 0.23 |  | 0.725 | 0.753 | 0.779 | 0.258 | 0.28 | 0.358 | 0.278 |
| NCI-H1437 | 0.355 | 0.32 | 0.357 | 0.353 | 0.38 | 0.297 | 0.353 | 0.335 | 0.354 | 0.391 | 0.696 | 0.63 | 0.804 | 0.591 | 0.376 | 0.383 | 0.399 | 0.368 |
| NCI-H2126 | 0.328 | 0.352 | 0.352 | 0.352 | 0.352 | 0.644 | 0.698 | 0.708 | 0.705 | 0.611 | 0.696 | 0.666 | 0.711 | 0.598 | 0.542 | 0.549 | 0.488 | 0.52 |
| LU99A | 0.428 | 0.449 | 0.476 | 0.376 | 0.325 | 0.172 | 0.165 | 0.195 | 0.212 | 0.191 | 0.547 | 0.526 | 0.559 | 0.495 | 0.891 | 0.913 | 0.812 | 0.834 |
| NCI-H460 | 0.192 | 0.203 | 0.11 | 0.146 | 0.128 | 0.0658 | 0.062 | 0.0697 | 0.0606 | 0.0547 | 0.356 | 0.359 | 0.394 | 0.391 | 0.164 | 0.167 | 0.201 | 0.166 |
| LCLC-97TM1 | 0.227 | 0.184 | 0.185 | 0.221 | 0.194 | 0.176 | 0.175 | 0.192 | 0.203 | 0.254 | 0.28 |  | 0.237 | 0.292 | 0.205 |  | 0.186 | 0.18 |
| NCI-H838 | 0.243 | 0.219 | 0.216 | 0.261 | 0.256 | 0.275 | 0.254 | 0.255 | 0.299 | 0.29 | 0.833 | 0.867 | 0.916 | 0.947 | 0.467 | 0.463 | 0.442 | 0.451 |
| SK-LU-1 | 0.429 | 0.401 | 0.467 | 0.341 | 0.4 | 1 | 0.9 | 1.05 | 0.962 | 0.868 | 0.754 | 0.812 | 0.938 | 0.737 | 0.667 | 0.517 | 0.595 | 0.557 |
| H3255 | 0.303 | 0.32 | 0.342 | 0.331 | 0.319 | 0.56 | 0.628 | 0.625 | 0.611 | 0.638 | 0.562 | 0.614 | 0.633 | 0.571 | 0.484 | 0.525 | 0.464 | 0.564 |
| SK-MES-1 | 0.305 | 0.3 | 0.353 | 0.355 | 0.302 | 1.01 | 1 | 1.11 | 1.14 | 0.993 | 0.786 | 0.953 | 0.859 | 0.871 | 0.369 | 0.388 | 0.356 | 0.326 |
| NCI-H1651 | 0.528 | 0.525 | 0.511 | 0.553 | 0.535 | 0.586 | 0.637 | 0.555 | 0.711 | 0.623 | 0.821 | 0.78 | 0.777 | 0.75 | 0.486 | 0.46 | 0.451 | 0.391 |
| LXF-289 | 0.653 | 0.608 | 0.612 | 0.665 | 0.625 | 0.949 | 0.978 | 1.05 | 0.944 | 1.07 | 0.783 | 0.789 | 0.744 | 0.67 | 0.317 | 0.323 | 0.343 | 0.3 |
| HCC-827 | 0.421 | 0.536 | 0.505 | 0.466 | 0.502 | 0.24 | 0.265 | 0.255 | 0.318 | 0.353 | 0.492 | 0.358 | 0.492 | 0.476 | 0.342 | 0.298 | 0.183 | 0.282 |
| LK-2 | 0.768 | 0.702 | 0.721 | 0.739 | 0.909 | 0.244 | 0.249 | 0.348 | 0.274 | 0.374 | 1.03 | 1.01 | 1.17 | 1.23 | 0.401 | 0.279 | 0.325 | 0.315 |
| HCC-366 | 0.389 | 0.43 | 0.372 | 0.391 | 0.369 | 0.194 | 0.183 | 0.285 | 0.351 | 0.317 | 0.205 | 0.212 | 0.284 | 0.323 | 0.242 | 0.207 | 0.292 | 0.252 |
| BEN | 0.454 | 0.463 | 0.537 | 0.497 | 0.465 | 0.845 | 0.893 | 0.997 | 1.2 | 1.06 | 0.767 | 0.899 | 1.05 | 0.901 | 0.75 | 0.775 | 0.713 | 0.668 |
| NCI-H322M | 0.466 | 0.473 | 0.459 | 0.524 | 0.455 | 0.61 | 0.628 | 0.596 | 0.666 | 0.652 | 0.0721 | 0.707 | 0.7 | 0.747 | 0.812 | 0.709 | 0.682 | 0.643 |
| NCI-H1395 | 0.63 | 0.661 | 0.596 | 0.709 | 0.596 | 1.04 | 1.04 | 0.848 | 0.927 | 0.725 | 0.962 | 0.897 | 0.995 | 1 | 0.689 | 0.762 | 0.757 | 0.714 |
| 201T | 0.362 | 0.367 | 0.372 | 0.38 | 0.377 | 0.336 | 0.335 | 0.393 | 0.355 | 0.307 | 0.594 | 0.614 | 0.578 | 0.563 | 0.459 | 0.647 | 0.445 | 0.43 |
| NCI-H2170 | 0.399 | 0.394 | 0.393 | 0.406 | 0.393 | 0.262 | 0.29 | 0.244 | 0.348 | 0.352 | 0.646 | 0.593 | 0.626 | 0.574 | 0.366 | 0.323 | 0.357 | 0.321 |
| NCI-H661 | 0.428 | 0.432 | 0.491 | 0.507 | 0.493 | 0.959 | 0.9 | 0.97 | 0.984 | 0.994 | 0.73 | 0.421 | 0.629 | 0.564 | 0.519 | 0.465 | 0.407 | 0.396 |
